Laboratory results from patent US9302999B2, “Substituted triazoles as herbicides” (E. I. DU PONT DE NEMOURS AND COMPANY, priority 2012, dated 2016).

What was measured:
Assay type in all cases: in vivo
[1] = test system: lambsquarters (Chenopodium album); assay: Test F pre-/postemergence: lambsquarters; conditions: Preemergence
From the text: (§1) Seeds of plant species selected from corn (Zea mays), soybean (Glycine max), velvetleaf (Abutilon theophrasti), lambsquarters (Chenopodium album), poinsettia, wild (wild poinsettia, Euphorbia heterophylla), pigweed, palmer (palmer pigweed, Amaranthus palmeri), waterhemp (common waterhemp, Amaranthus rudis), surinam grass (Brachiaria decumbens), crabgrass, Brazil (Brazilian crabgrass, Digitaria horizontalis), panicum, fall (fall panicum Panicum dichotomiflorum), crabgrass, large (large crabgrass, Digitaria sanguinalis), foxtail, giant (giant foxtail, Setaria faberii), foxtail, green (green foxtail Setaria viridis), goosegrass (Eleusine indica), ragweed (common ragweed, Ambrosia elatior), barnyardgrass (Echinochloa crus-galli), sandbur (southern sandbur, Cenchrus echinatus), arrowleaf sida (Sida rhombifolia), ryegrass, Italian (Italian ryegrass, Lolium multiflorum), dayflower, VA (Virginia (VA) dayflower, Commelina virginica), field bindweed (Convolvulus arvensis), cocklebur (common cocklebur, Xanthium strumarium), morningglory (Ipomoea coccinea), nightshade (eastern black nightshade, Solanum ptycanthum), kochia (Kochia scoparia), nutsedge, yellow (yellow nutsedge, Cyperus esculentus), johnsongrass (Sorghum halepense), smartweed (ladysthumb smartweed, Polygonum persicaria), and beggarticks (hairy beggarticks, Bidens pilosa), were planted into a silt loam soil and treated preemergence with test chemicals formulated in a non-phytotoxic solvent mixture which included a surfactant. At the same time, plants selected from these crop and weed species and also pigweed (Amaranthus retroflexus), waterhemp_RES1 (ALS/Triazine resistant common waterhemp, Amaranthus rudis) and waterhemp_RES2 (ALS/HPPD resistant common waterhemp, Amaranthus rudis) were planted in pots containing a planting medium comprising spaghnum peat moss, vermiculite, wetting agent and starter nutrients treated with postemergence applications of some of the test chemicals formulated in the same manner. Plants ranged in height from 2 to 18 cm for postemergence treatments (1- to 4-leaf stage).
(§2) Treated plants and controls were maintained in a greenhouse for 14 to 21 days, after which time all species were compared to controls and visually evaluated. Plant response ratings, summarized in Table E, are based on a scale of 0 to 100 where 0 is no effect and 100 is complete control. A dash (-) response means no test result.

[2] = test system: pigweed, palmer (palmer pigweed, Amaranthus palmeri); assay: Test F pre-/postemergence: pigweed, palmer
From the text: as §1, §2

[3] = test system: morningglory (Ipomoea coccinea); assay: Test F pre-/postemergence: morningglory; conditions: Preemergence
From the text: as §1, §2

[4] = test system: crabgrass, Brazil (Brazilian crabgrass, Digitaria horizontalis); assay: Test F pre-/postemergence: crabgrass, Brazil
From the text: as §1, §2

[5] = test system: bromegrass, downy (downy bromegrass, Bromus tectorum); assay: Test D pre-/postemergence: bromegrass, downy
Outline: (§3)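 Visual control ratings (0–100) after 14–21 days, controlled environment. Preemergence on silt loam; postemergence on 2–18 cm plants.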

kochia (Kochia scoparia) = assay: Test D pre-/postemergence: kochia
Outline: as §3

[6] = test system: buckwheat, wild (wild buckwheat, Polygonum convolvulus); assay: Test D pre-/postemergence: buckwheat, wild
Outline: as §3

[7] = 16 g ai/ha, scale 0 to 100, 0 no effect, 100 complete control
[8] = 31 g ai/ha, scale 0 to 100, 0 no effect, 100 complete control
[9] = Preemergence, 16 g ai/ha, scale 0 to 100, 0 no effect, 100 complete control
[10] = Preemergence, 31 g ai/ha, scale 0 to 100, 0 no effect, 100 complete control
[11] = Preemergence, 125 g ai/ha, scale 0 to 100
[12] = Preemergence, 250 g ai/ha, scale 0 to 100
[13] = Preemergence, 62 g ai/ha, scale 0 to 100
[14] = Postemergence, 31 g ai/ha, scale 0 to 100 (0 no effect, 100 complete control)
[15] = Postemergence, 62 g ai/ha, scale 0 to 100 (0 no effect, 100 complete control)
[16] = Postemergence, 125 g ai/ha, scale 0 to 100, 0 no effect, 100 complete control
[17] = Postemergence, 16 g ai/ha, scale 0 to 100
[18] = Postemergence, 250 g ai/ha, scale 0 to 100
[19] = Postemergence, 31 g ai/ha, scale 0 to 100
[20] = Postemergence, 125 g ai/ha, scale 0 to 100

Structure (SMILES): Cc1nn(-c2ccc(F)cc2F)nc1Oc1ccnc(C(F)(F)F)c1 [Compound 146]
- Plant response rating, Lambsquarters [1, 7]: 0
- Plant response rating, Lambsquarters [1, 8]: 0
- Plant response rating, Lambsquarters ([1]; 62 g ai/ha, scale 0 to 100): 40
- Plant response rating, Lambsquarters ([1]; 125 g ai/ha, scale 0 to 100): 98
- Plant response rating, Lambsquarters ([1]; 250 g ai/ha, scale 0 to 100): 98
- Plant response rating, Pigweed, Palmer [2, 9]: 85
- Plant response rating, Pigweed, Palmer [2, 10]: 100
- Plant response rating, Pigweed, Palmer [2, 11]: 100
- Plant response rating, Pigweed, Palmer [2, 12]: 100
- Plant response rating, Morningglory [3, 7]: 0
- Plant response rating, Morningglory [3, 8]: 0
- Plant response rating, Morningglory ([3]; 125 g ai/ha, scale 0 to 100): 0
- Plant response rating, Morningglory ([3]; 250 g ai/ha, scale 0 to 100): 25

Structure (SMILES): COc1nn(-c2cccc(F)c2)nc1Cc1ccnc(C(F)(F)F)c1 [Compound 139]
- Plant response rating, Lambsquarters [1, 7]: 0
- Plant response rating, Lambsquarters [1, 8]: 20
- Plant response rating, Lambsquarters ([1]; 62 g ai/ha, scale 0 to 100): 65
- Plant response rating, Lambsquarters ([1]; 125 g ai/ha, scale 0 to 100): 90
- Plant response rating, Lambsquarters ([1]; 250 g ai/ha, scale 0 to 100): 98
- Plant response rating, Morningglory [3, 7]: 0
- Plant response rating, Morningglory [3, 8]: 0
- Plant response rating, Morningglory ([3]; 125 g ai/ha, scale 0 to 100): 5
- Plant response rating, Morningglory ([3]; 250 g ai/ha, scale 0 to 100): 20

Structure (SMILES): CCc1nn(-c2ccc(F)c(F)c2)nc1Oc1ccnc(C(F)(F)F)c1 [Compound 171]
- Plant response rating, Lambsquarters [1, 7]: 0
- Plant response rating, Lambsquarters [1, 8]: 0
- Plant response rating, Lambsquarters ([1]; 62 g ai/ha, scale 0 to 100): 35
- Plant response rating, Lambsquarters ([1]; 125 g ai/ha, scale 0 to 100): 65
- Plant response rating, Lambsquarters ([1]; 250 g ai/ha, scale 0 to 100): 98
- Plant response rating, Pigweed, Palmer [2, 9]: 0
- Plant response rating, Pigweed, Palmer [2, 10]: 0
- Plant response rating, Pigweed, Palmer [2, 11]: 100
- Plant response rating, Pigweed, Palmer [2, 12]: 100
- Plant response rating, Crabgrass, Brazil [4, 9]: 0
- Plant response rating, Crabgrass, Brazil [4, 10]: 98
- Plant response rating, Crabgrass, Brazil [4, 13]: 100
- Plant response rating, Crabgrass, Brazil [4, 11]: 100
- Plant response rating, Crabgrass, Brazil [4, 12]: 100
- Plant response rating, Morningglory [3, 7]: 0
- Plant response rating, Morningglory [3, 8]: 0
- Plant response rating, Morningglory ([3]; 125 g ai/ha, scale 0 to 100): 35
- Plant response rating, Morningglory ([3]; 250 g ai/ha, scale 0 to 100): 65

Structure (SMILES): CCc1nn(-c2ccc(C(F)(F)F)cc2)nc1Cc1ccnc(C(F)(F)F)c1 [Compound 155]
- Plant response rating: Bromegrass, Downy [5, 14]: 15
- Plant response rating: Bromegrass, Downy [5, 15]: 35
- Plant response rating: Bromegrass, Downy [5, 16]: 55
- Plant response rating, Bromegrass, Downy [5, 17]: 5
- Plant response rating, Bromegrass, Downy [5, 9]: 0
- Plant response rating, Bromegrass, Downy [5, 10]: 5
- Plant response rating, Bromegrass, Downy [5, 13]: 10
- Plant response rating, Bromegrass, Downy [5, 11]: 35
- Plant response rating: Kochia (kochia (Kochia scoparia); [14]): 80
- Plant response rating: Kochia (kochia (Kochia scoparia); [15]): 85
- Plant response rating: Kochia (kochia (Kochia scoparia); [16]): 85
- Plant response rating, Kochia (kochia (Kochia scoparia); [17]): 70
- Plant response rating, Kochia (kochia (Kochia scoparia); [9]): 30
- Plant response rating, Kochia (kochia (Kochia scoparia); [10]): 60
- Plant response rating, Kochia (kochia (Kochia scoparia); [13]): 65
- Plant response rating, Kochia (kochia (Kochia scoparia); [11]): 75
- Plant response rating: Buckwheat, Wild [6, 14]: 70
- Plant response rating: Buckwheat, Wild [6, 15]: 70
- Plant response rating: Buckwheat, Wild [6, 16]: 75
- Plant response rating, Buckwheat, Wild [6, 17]: 75
- Plant response rating, Buckwheat, Wild [6, 9]: 10
- Plant response rating, Buckwheat, Wild [6, 10]: 25
- Plant response rating, Buckwheat, Wild [6, 13]: 50
- Plant response rating, Buckwheat, Wild [6, 11]: 70
- Plant response rating, Lambsquarters ([1]; 62 g ai/ha, scale 0 to 100): 98
- Plant response rating, Lambsquarters ([1]; 125 g ai/ha, scale 0 to 100): 98
- Plant response rating, Lambsquarters ([1]; 250 g ai/ha, scale 0 to 100): 98
- Plant response rating, Pigweed, Palmer [2, 11]: 100
- Plant response rating, Pigweed, Palmer [2, 12]: 100
- Plant response rating, Crabgrass, Brazil [4, 13]: 100
- Plant response rating, Crabgrass, Brazil [4, 11]: 100
- Plant response rating, Crabgrass, Brazil [4, 12]: 100

Structure (SMILES): CCCc1nn(-c2ccc(F)c(F)c2)nc1Oc1ccnc(C(F)(F)F)c1 [Compound 172]
- Plant response rating, Lambsquarters [1, 8]: 50
- Plant response rating, Lambsquarters ([1]; 125 g ai/ha, scale 0 to 100): 98
- Plant response rating, Lambsquarters ([1]; 250 g ai/ha, scale 0 to 100): 98
- Plant response rating, Pigweed, Palmer [2, 18]: 100
- Plant response rating, Pigweed, Palmer [2, 19]: 100
- Plant response rating, Pigweed, Palmer [2, 20]: 100
- Plant response rating, Pigweed, Palmer [2, 10]: 100
- Plant response rating, Pigweed, Palmer [2, 11]: 100
- Plant response rating, Pigweed, Palmer [2, 12]: 100
- Plant response rating, Crabgrass, Brazil [4, 18]: 90
- Plant response rating, Crabgrass, Brazil [4, 19]: 50
- Plant response rating, Crabgrass, Brazil [4, 20]: 70
- Plant response rating, Crabgrass, Brazil [4, 10]: 100
- Plant response rating, Crabgrass, Brazil [4, 11]: 100
- Plant response rating, Crabgrass, Brazil [4, 12]: 100
- Plant response rating, Morningglory [3, 8]: 0
- Plant response rating, Morningglory ([3]; 125 g ai/ha, scale 0 to 100): 5
- Plant response rating, Morningglory ([3]; 250 g ai/ha, scale 0 to 100): 5

Structure (SMILES): CCc1nn(-c2ccc(F)cc2)nc1Cc1ccnc(C(F)(F)F)c1 [Compound 154]
- Plant response rating, Lambsquarters [1, 7]: 0
- Plant response rating, Lambsquarters [1, 8]: 30
- Plant response rating, Lambsquarters ([1]; 62 g ai/ha, scale 0 to 100): 75
- Plant response rating, Lambsquarters ([1]; 125 g ai/ha, scale 0 to 100): 98
- Plant response rating, Lambsquarters ([1]; 250 g ai/ha, scale 0 to 100): 98
- Plant response rating, Pigweed, Palmer [2, 9]: 100
- Plant response rating, Pigweed, Palmer [2, 10]: 100
- Plant response rating, Pigweed, Palmer [2, 11]: 100
- Plant response rating, Pigweed, Palmer [2, 12]: 100
- Plant response rating, Crabgrass, Brazil [4, 9]: 75
- Plant response rating, Crabgrass, Brazil [4, 10]: 100
- Plant response rating, Crabgrass, Brazil [4, 13]: 100
- Plant response rating, Crabgrass, Brazil [4, 11]: 100
- Plant response rating, Crabgrass, Brazil [4, 12]: 100
